Assay results reported in ChEMBL document CHEMBL4118101 (Bioorg Med Chem, 2018).
≈ marks a conversion by molar mass, not a printed value. Calls of active or inactive are those of the source. The rule behind the calls is not given here.

Legend:
Candida parapsilosis [1] = experiment: Antifungal activity against Candida parapsilosis isolate CP1 measured after 48 hrs by CLSI M27-A3 protocol based method; assay type: functional; settings: Lodderomyces parapsilosis, isolate CP1, 48 h
Nakaseomyces glabratus [2] = experiment: Antifungal activity against Candida glabrata isolate CG2 measured after 48 hrs by CLSI M27-A3 protocol based method; assay type: functional; settings: Nakaseomyces glabratus, isolate CG2, 48 h; read-out: MIC
Candida parapsilosis [3] = experiment: Antifungal activity against Candida parapsilosis ATCC 22019 measured after 48 hrs by CLSI M27-A3 protocol based method; assay type: functional; settings: Lodderomyces parapsilosis, ATCC 22019, 48 h
Candida parapsilosis [4] = experiment: Antifungal activity against Candida parapsilosis isolate CP3 measured after 48 hrs by CLSI M27-A3 protocol based method; assay type: functional; settings: Lodderomyces parapsilosis, isolate CP3, 48 h
Cryptococcus neoformans [5] = experiment: Antifungal activity against Cryptococcus neoformans isolate CN3 measured after 48 hrs by CLSI M27-A3 protocol based method; assay type: functional; settings: Cryptococcus neoformans, isolate CN3, 48 h; read-out: MIC
Nakaseomyces glabratus [6] = experiment: Antifungal activity against Candida glabrata isolate CG3 measured after 48 hrs by CLSI M27-A3 protocol based method; assay type: functional; settings: Nakaseomyces glabratus, 48 h; read-out: MIC
Cryptococcus neoformans [7] = experiment: Antifungal activity against Cryptococcus neoformans isolate CN1 measured after 48 hrs by CLSI M27-A3 protocol based method; assay type: functional; settings: isolate CN1, 48 h
Candida albicans [8] = experiment: Antifungal activity against fluconazole/ITC-resistant Candida albicans ATCC 90819 measured after 48 hrs by CLSI M27-A3 protocol based method; assay type: functional; settings: Candida albicans, ATCC 90819, 48 h; read-out: MIC
Cryptococcus neoformans [9] = experiment: Antifungal activity against Cryptococcus neoformans isolate CN2 measured after 48 hrs by CLSI M27-A3 protocol based method; assay type: functional; settings: Cryptococcus neoformans, isolate CN2, 48 h; read-out: MIC
Candida albicans [10] = experiment: Antifungal activity against fluconazole/ITC-susceptible Candida albicans ATCC MYA-2876 measured after 48 hrs by CLSI M27-A3 protocol based method; assay type: functional; settings: Candida albicans, ATCC MYA-2876, 48 h
Pichia kudriavzevii = experiment: Antifungal activity against Candida krusei ATCC 6258 measured after 48 hrs by CLSI M27-A3 protocol based method; assay type: functional; settings: Pichia kudriavzevii, ATCC 6258, 48 h
Candida albicans [11] = experiment: Antifungal activity against fluconazole/ITC-susceptible Candida albicans ATCC MYA-2310 measured after 48 hrs by CLSI M27-A3 protocol based method; assay type: functional; settings: Candida albicans, ATCC MYA-2310, 48 h; read-out: MIC
Candida parapsilosis [12] = experiment: Antifungal activity against Candida parapsilosis isolate CP2 measured after 48 hrs by CLSI M27-A3 protocol based method; assay type: functional; settings: Lodderomyces parapsilosis, isolate CP2, 48 h
Candida albicans [13] = experiment: Antifungal activity against fluconazole/ITC-resistant Candida albicans ATCC MYA-1237 measured after 48 hrs by CLSI M27-A3 protocol based method; assay type: functional; settings: Candida albicans, ATCC MYA-1237, 48 h; read-out: MIC
Candida albicans [14] = experiment: Antifungal activity against Candida albicans ATCC 64124 measured after 48 hrs by CLSI M27-A3 protocol based method; assay type: functional; settings: Candida albicans, ATCC 64124, 48 h; read-out: MIC
Nakaseomyces glabratus [15] = experiment: Antifungal activity against Candida glabrata isolate CG1 measured after 48 hrs by CLSI M27-A3 protocol based method; assay type: functional; settings: Nakaseomyces glabratus, 48 h; read-out: MIC
Nakaseomyces glabratus [16] = experiment: Antifungal activity against Candida glabrata ATCC 2001 measured after 48 hrs by CLSI M27-A3 protocol based method; assay type: functional, CBS 138; settings: Nakaseomyces glabratus, CBS 138, 48 h; read-out: MIC
Candida albicans [17] = experiment: Antifungal activity against fluconazole/ITC-resistant Candida albicans ATCC MYA-1003 measured after 48 hrs by CLSI M27-A3 protocol based method; assay type: functional; settings: Candida albicans, ATCC MYA-1003, 48 h; read-out: MIC
Candida albicans [18] = experiment: Antifungal activity against Candida albicans ATCC 10231 measured after 48 hrs by CLSI M27-A3 protocol based method; assay type: functional; settings: ATCC 10231, 48 h
Aspergillus terreus = experiment: Antifungal activity against Aspergillus terreus ATCC MYA-3633 measured after 48 hrs by CLSI M38-A2 protocol based method; assay type: functional; settings: ATCC MYA-3633, 48 h
Aspergillus flavus = experiment: Antifungal activity against Aspergillus flavus ATCC MYA-3631 measured after 48 hrs by CLSI M38-A2 protocol based method; assay type: functional; settings: ATCC MYA-3631, 48 h
Aspergillus nidulans = experiment: Antifungal activity against Aspergillus nidulans ATCC 38163 measured after 48 hrs by CLSI M38-A2 protocol based method; assay type: functional; settings: ATCC 38163, 48 h
Candida albicans [19] = experiment: Induction of membrane permeabilization in Candida albicans ATCC 10231 assessed as membrane disruption at 4 times MIC after 1 hr by propidium iodide staining based fluorescence microscopy; assay type: functional, organism-based

SMILES | MIC (Candida parapsilosis [1]) | MIC (Nakaseomyces glabratus [2]) | MIC (Candida parapsilosis [3]) | MIC (Candida parapsilosis [4]) | MIC (Cryptococcus neoformans [5]) | MIC (Nakaseomyces glabratus [6]) | MIC (Cryptococcus neoformans [7]) | MIC (Candida albicans [8]) | MIC (Cryptococcus neoformans [9]) | MIC (Candida albicans [10]) | MIC (Pichia kudriavzevii) | MIC (Candida albicans [11]) | MIC (Candida parapsilosis [12]) | MIC (Candida albicans [13]) | MIC (Candida albicans [14]) | MIC (Nakaseomyces glabratus [15]) | MIC (Nakaseomyces glabratus [16]) | MIC (Candida albicans [17]) | MIC (Candida albicans [18]) | MIC (Aspergillus terreus) | further results
OCCCCCCNCC(O)(Cn1cncn1)c1ccc(F)cc1F (configuration not stated) | 88.3 µM (≈ 31.3 µg/mL) | > 88.3 µM | > 88.3 µM | 88.3 µM (≈ 31.3 µg/mL) | > 88.3 µM | > 88.3 µM | > 88.3 µM | 88.3 µM (≈ 31.3 µg/mL) | > 88.3 µM | 88.3 µM (≈ 31.3 µg/mL) | > 88.3 µM | > 88.3 µM | 88.3 µM (≈ 31.3 µg/mL) | > 88.3 µM | > 88.3 µM | > 88.3 µM | > 88.3 µM | > 88.3 µM | > 88.3 µM | > 88.3 µM | MIC (Aspergillus flavus): > 88.3 µM; MIC (Aspergillus nidulans): > 88.3 µM
CCCCCCCCCCCCCCSC[C@H]1O[C@H](O[C@H]2[C@H](O)[C@@H](O[C@H]3O[C@H](CO)[C@@H](O)[C@H](N)[C@H]3O)[C@H](N)C[C@@H]2N)[C@H](N)[C@@H](O)[C@@H]1O | – | – | – | – | – | – | – | – | – | – | – | – | – | – | – | – | – | – | – | – | Activity (Candida albicans [19]): Active
CCCCCOCCCCCCNCC(O)(Cn1cncn1)c1ccc(F)cc1F (configuration not stated) | 0.28 µM (≈ 0.119 µg/mL) | 4.6 µM (≈ 1.95 µg/mL) | 0.57 µM (≈ 0.242 µg/mL) | 0.28 µM (≈ 0.119 µg/mL) | 4.6 µM (≈ 1.95 µg/mL) | 73.7 µM (≈ 31.3 µg/mL) | 1.1 µM (≈ 0.467 µg/mL) | 9.2 µM (≈ 3.91 µg/mL) | 4.6 µM (≈ 1.95 µg/mL) | 73.7 µM (≈ 31.3 µg/mL) | 4.6 µM (≈ 1.95 µg/mL) | 36.7 µM (≈ 15.6 µg/mL) | 0.28 µM (≈ 0.119 µg/mL) | 9.2 µM (≈ 3.91 µg/mL) | > 73.7 µM | 36.7 µM (≈ 15.6 µg/mL) | 9.2 to 36.7 µM (≈ 3.91 to 15.6 µg/mL) | 18.4 µM (≈ 7.81 µg/mL) | 9.2 µM (≈ 3.91 µg/mL) | 73.7 µM (≈ 31.3 µg/mL) | MIC (Aspergillus flavus): > 73.7 µM; MIC (Aspergillus nidulans): 18.4 µM (≈ 7.81 µg/mL)
CCCCCCNCC(O)(Cn1cncn1)c1ccc(F)cc1F (configuration not stated) | 2.9 µM (≈ 0.981 µg/mL) | 23 µM (≈ 7.78 µg/mL) | 2.9 µM (≈ 0.981 µg/mL) | 2.9 µM (≈ 0.981 µg/mL) | 92.3 µM (≈ 31.2 µg/mL) | 92.3 µM (≈ 31.2 µg/mL) | 23 µM (≈ 7.78 µg/mL) | 92.3 µM (≈ 31.2 µg/mL) | > 92.3 µM | 46.1 µM (≈ 15.6 µg/mL) | 23 µM (≈ 7.78 µg/mL) | 92.3 µM (≈ 31.2 µg/mL) | 2.9 µM (≈ 0.981 µg/mL) | > 92.3 µM | > 92.3 µM | 92.3 µM (≈ 31.2 µg/mL) | 23 to 46.1 µM (≈ 7.78 to 15.6 µg/mL) | 92.3 µM (≈ 31.2 µg/mL) | 23 µM (≈ 7.78 µg/mL) | > 92.3 µM | MIC (Aspergillus flavus): > 92.3 µM; MIC (Aspergillus nidulans): > 92.3 µM; Activity (Candida albicans [19]): inactive
CC(C)c1ccc(NCC(O)(Cn2cncn2)c2ccc(F)cc2F)cc1 (configuration not stated) | 10.5 µM (≈ 3.91 µg/mL) | 20.9 µM (≈ 7.78 µg/mL) | 20.9 µM (≈ 7.78 µg/mL) | 10.5 µM (≈ 3.91 µg/mL) | > 84 µM | 20.9 µM (≈ 7.78 µg/mL) | 20.9 µM (≈ 7.78 µg/mL) | 84 µM (≈ 31.3 µg/mL) | 84 µM (≈ 31.3 µg/mL) | > 84 µM | > 84 µM | 84 µM (≈ 31.3 µg/mL) | 10.5 µM (≈ 3.91 µg/mL) | 84 µM (≈ 31.3 µg/mL) | > 84 µM | 20.9 µM (≈ 7.78 µg/mL) | 20.9 to 84 µM (≈ 7.78 to 31.3 µg/mL) | 84 µM (≈ 31.3 µg/mL) | > 84 µM | 41.9 µM (≈ 15.6 µg/mL) | MIC (Aspergillus flavus): 84 µM (≈ 31.3 µg/mL); MIC (Aspergillus nidulans): 20.9 µM (≈ 7.78 µg/mL)
CCCCCCCCN(CCCCCCCC)CC(O)(Cn1cncn1)c1ccc(F)cc1F (configuration not stated) | 2 µM (≈ 0.957 µg/mL) | 16.3 µM (≈ 7.8 µg/mL) | 2 µM (≈ 0.957 µg/mL) | 4.1 µM (≈ 1.96 µg/mL) | > 65.4 µM | 65.4 µM (≈ 31.3 µg/mL) | > 65.4 µM | 65.4 µM (≈ 31.3 µg/mL) | > 65.4 µM | 65.4 µM (≈ 31.3 µg/mL) | 65.4 µM (≈ 31.3 µg/mL) | > 65.4 µM | 4.1 µM (≈ 1.96 µg/mL) | 65.4 µM (≈ 31.3 µg/mL) | > 65.4 µM | 32.6 µM (≈ 15.6 µg/mL) | 65.4 µM (≈ 31.3 µg/mL) | > 65.4 µM | 65.4 µM (≈ 31.3 µg/mL) | > 65.4 µM | MIC (Aspergillus flavus): > 65.4 µM; MIC (Aspergillus nidulans): 32.7 µM (≈ 15.7 µg/mL)
